{"source": "paper PMC10382589", "about": "“In vitro and in vivo antiplasmodial evaluation of sugar-modified nucleoside analogues” (Scientific Reports, 2023)", "key": {"[1]": {"test_system": "Pf3D7 chloroquine-sensitive strain", "test": "SYBR green I based fluorescence growth inhibition assay, Pf3D7", "assay_type": "cell-based, Plasmodium falciparum", "conditions": "for IC50 / inhibition at 1 µM: Plasmodium falciparum; for IC50: read-out: IC50 (µM) against Pf3D7; for growth inhibition against Pf3D7 (in words): screen at 1 µM and 10 µM, vs untreated control (Fig. S1); for inhibition at 1 µM: asynchronous culture, one intraerythrocytic cycle (Fig. S1), read-out: inhibition against Pf3D7 at 1 µM", "protocol": "Growth of one intraerythrocytic cycle of Pf was monitored after treated with compounds whereas untreated parasites were considered as control.\n(§1) The percent growth inhibition of the parasites was evaluated by SYBR Green assay.\n(§2) Pf3D7 and PfRKL-9 were cultured by following procedure reported by Trager and Jensen[33]. […] In order to examine the morphological changes in the parasite, a blood film must be prepared. A thin blood film was air-dried, fixed with methanol, and allowed to dry before staining. […] Light microscopy analysis was carried out to evaluate the inhibitory effect of compounds at different concentrations against Pf3D7 and PfRKL-9.\nSYBR green I based fluorescence assay was performed to measure the growth inhibition effect of the 26 compounds and further dose dependent assay against Pf3D7, and PfRKL-9 (Indian field strain, source- NIMR, New Delhi, India) was carried out at different concentrations. […] Parasitized erythrocytes were treated with different concentrations of compounds ranging from 1 µM to 10 µM, whereas DMSO worked as a control. Triplicate wells of parasitized erythrocytes treated with compounds were seeded in 96 well microtiter plate following incubation at 37 °C for one cycle of parasite growth. […] Growth inhibition (%) was calculated as follows: % Inhibition = [1 − % Parasitemia (Treatment)/% Parasitemia (Control)] *100. Data were expressed as mean ± SD."}, "human RBCs": {"test_system": "human RBCs", "test": "Hemolytic activity on human RBCs", "assay_type": "cell-based", "conditions": "0.5-20 µM, 10% (v/v) RBC suspension, 1 h, absorbance at 415 nm", "protocol": "Effect of compounds on human RBCs was checked with the help of spectrophotometry by measuring the lysis of human red blood cells (hRBCs). Compounds were tested at 0.5, 1, 5, 10 and 20 μM concentrations with 10% (v/v) RBCs suspension for 1 h and observed the percentage of RBCs lysis by compounds 7, 16, 17, 18 and 1.\nHuman RBCs were from Rotary Blood Bank, Tughlakabad Institutional Area, New Delhi, India. Effect of compounds on RBCs was checked by hemolytic assay. In brief, RBCs suspension with 10% (v/v) washed with 1 × Phosphate-buffered saline (PBS) (pH 7.4) and again resuspended in 1 × PBS. RBCs suspension was incubated with compounds 7, 16, 17, 18 and 1 at different concentrations (0.5, 1, 5, 10 and 20 μM) for 1 h at 37 °C. Samples were centrifuged and supernatant was taken for absorbance at 415 nm. Triton X-100 with 1% (v/v) was used as a positive control. Experiment was done in triplicate."}, "[2]": {"test_system": "chloroquine resistant strain PfRKL-9", "test": "SYBR green I based fluorescence growth inhibition assay, PfRKL-9", "assay_type": "cell-based", "conditions": "Plasmodium falciparum, synchronized late trophozoite parasites, triplicate, mean ± SD, read-out: IC50 (µM) against PfRKL-9", "protocol": "as §1, §2\nSYBR green I based fluorescence assay was performed to measure the growth inhibition effect of the 26 compounds and further dose dependent assay against Pf3D7, and PfRKL-9 (Indian field strain, source- NIMR, New Delhi, India) was carried out at different concentrations. In brief, Pf3D7 and PfRKL-9 parasitized erythrocytes (trophozoite stage with 1% parasitemia) were diluted with noninfected erythrocytes at a constant 2% hematocrit in culture medium. Parasitized erythrocytes were treated with different concentrations of compounds ranging from 1 µM to 10 µM, whereas DMSO worked as a control. Triplicate wells of parasitized erythrocytes treated with compounds were seeded in 96 well microtiter plate following incubation at 37 °C for one cycle of parasite growth. […] Growth inhibition (%) was calculated as follows: % Inhibition = [1 − % Parasitemia (Treatment)/% Parasitemia (Control)] *100. Data were expressed as mean ± SD."}, "[3]": {"conditions": "chloroquine-sensitive strain, synchronized late trophozoite parasites, SYBR Green, triplicate, mean ± SD"}}, "note": "Entries after “also recorded” stand apart in the source; their conditions may differ. Like-named read-outs stand apart in the source and are kept apart here.", "data": [{"smiles": "COc1ccc(C(OC[C@@H]2CN(C[C@H]3O[C@@H](n4cc(C)c(=O)[nH]c4=O)C[C@@H]3O)C[C@H](n3cc(C)c(=O)[nH]c3=O)O2)(c2ccccc2)c2ccc(OC)cc2)cc1", "note": "[Compound 3]", "values": [{"measurement": "IC50", "setting": "[1]; [3]", "result": "1.19 ± 1.1", "unit": "µM"}, {"measurement": "growth inhibition against Pf3D7 (in words)", "setting": "[1]", "result": "remarkable actvity; also recorded: good/excellent inhibitory effect"}, {"measurement": "lysis of human RBCs (in words)", "setting": "human RBCs", "result": "showed cytotoxicity towards human RBCs; also recorded: showed toxicity"}, {"measurement": "IC50", "setting": "[2]", "result": "4.5 ± 2.5", "unit": "µM"}]}, {"smiles": "Cc1cn([C@@H]2O[C@H](CN3C[C@@H](CN4C[C@@H](COC(c5ccccc5)(c5ccccc5)c5ccccc5)O[C@@H](n5cc(C)c(=O)[nH]c5=O)C4)O[C@@H](n4ccc(=O)[nH]c4=O)C3)[C@H]3OC(C)(C)O[C@H]32)c(=O)[nH]c1=O", "note": "[Compound 4]", "values": [{"measurement": "growth inhibition against Pf3D7 (in words)", "setting": "[1]", "result": "good/excellent inhibitory effect"}]}, {"smiles": "Nc1ncnc2c1ncn2[C@@H]1O[C@H](CN2C[C@@H](CO)O[C@@H](n3cnc4c(=O)[nH]cnc43)C2)[C@@H](O)[C@H]1O", "note": "[Compound 5]", "values": [{"measurement": "IC50", "setting": "[1]; [3]", "result": "1.34 ± 2.1", "unit": "µM"}, {"measurement": "growth inhibition against Pf3D7 (in words)", "setting": "[1]", "result": "remarkable actvity"}, {"measurement": "lysis of human RBCs (in words)", "setting": "human RBCs", "result": "showed cytotoxicity towards human RBCs; also recorded: showed toxicity"}, {"measurement": "IC50", "setting": "[2]", "result": "6.23 ± 1.5", "unit": "µM"}]}, {"smiles": "CC1(C)O[C@@H]2[C@H](O1)[C@H](CS[C@@H]1O[C@H](CO)[C@@H](O)[C@H](O)[C@H]1O)O[C@H]2n1cnc2c(NC(c3ccccc3)(c3ccccc3)c3ccccc3)ncnc21", "note": "[Compound 8, 1-[2’,3’-O-Isopropylidene-5’-S-(β-D-glucopyranosyl)-5’-thio-α-L-lyxofuranosyl]-N-trityl-adenine]", "values": [{"measurement": "growth inhibition against Pf3D7 (in words)", "setting": "[1]", "result": "did not significantly affect the antimalarial activity"}]}, {"smiles": "CC(=O)OC[C@H]1O[C@@H](SC[C@@H]2O[C@@H](n3cnc4c(N)ncnc43)[C@H](O)[C@@H]2O)[C@H](OC(C)=O)[C@@H](OC(C)=O)[C@@H]1OC(C)=O", "note": "[Compound 9, 1-[5’-S-(2,3,4,6-Tetra-O-acetyl-β-D-glucopyranosyl)-5’-thio-α-L-lyxofuranosyl]-adenine]", "values": [{"measurement": "growth inhibition against Pf3D7 (in words)", "setting": "[1]", "result": "significant decrease in growth inhibitiory effect"}]}, {"smiles": "CCCSC[C@@H]1[C@@H](O[Si](C)(C)C(C)(C)C)[C@H](n2ccc(=O)[nH]c2=O)O[C@@H]1CO[Si](C)(C)C(C)(C)C", "note": "[Compound 10]", "values": [{"measurement": "inhibition at 1 µM", "setting": "[1]", "result": "5 to 25", "unit": "%"}]}, {"smiles": "CC(C)(C)[Si](C)(C)OC[C@H]1O[C@@H](n2ccc(=O)[nH]c2=O)[C@H](O[Si](C)(C)C(C)(C)C)[C@H]1CSCc1ccc2ccccc2c1", "note": "[Compound 11, 1-[3’-Deoxy-3’-C-(2-naphtyl)methylsulfanylmethyl-2’,5’-di-O-(tert-butyldimethylsilyl)-β-D-xylofuranosyl]-uracil]", "values": [{"measurement": "inhibition at 1 µM", "setting": "[1]", "result": "5 to 25", "unit": "%"}]}, {"smiles": "COC(=O)[C@H](CSC[C@@H]1[C@@H](O[Si](C)(C)C(C)(C)C)[C@H](n2ccc(=O)[nH]c2=O)O[C@@H]1CO[Si](C)(C)C(C)(C)C)NC(=O)OCC1c2ccccc2-c2ccccc21", "note": "[Compound 12, 1-[3’-Deoxy-3’-C-(N-Fmoc-cysteinemethyl ester)thiylmethyl-2’,5’-di-O-(tert-butyldimethylsilyl)-β-D-xylofuranosyl]-uracil]", "values": [{"measurement": "growth inhibition against Pf3D7 (in words)", "setting": "[1]", "result": "good/excellent inhibitory effect"}]}, {"smiles": "CC(=O)OC[C@H]1O[C@@H](SC[C@@H]2[C@@H](O[Si](C)(C)C(C)(C)C)[C@H](n3ccc(=O)[nH]c3=O)O[C@@H]2CO[Si](C)(C)C(C)(C)C)[C@@H](OC(C)=O)[C@@H](OC(C)=O)[C@@H]1OC(C)=O", "note": "[Compound 15, 1-[3’-Deoxy-3’-C-(-2,3,4,6-tetra-O-acetyl-β-D-mannopyranosyl-sulfanylmethyl)-2’,5’-di-O-(tert-butyldimethylsilyl)-β-D-xylofuranosyl]-uracil]", "values": [{"measurement": "inhibition at 1 µM", "setting": "[1]", "result": "~50", "unit": "%"}, {"measurement": "growth inhibition against Pf3D7 (in words)", "setting": "[1]", "result": "more moderate growth inhibitory effect"}]}, {"smiles": "CCCCCCCCCCSC[C@@H]1[C@@H](O[Si](C)(C)C(C)(C)C)[C@H](n2cc(C)c(=O)[nH]c2=O)O[C@@H]1CO[Si](C)(C)C(C)(C)C", "note": "[Compound 19]", "values": [{"measurement": "inhibition at 1 µM", "setting": "[1]", "result": "5 to 25", "unit": "%"}]}, {"smiles": "CCCCSC[C@H]1[C@@H]2O[Si](C(C)C)(C(C)C)O[Si](C(C)C)(C(C)C)OC[C@H]2O[C@H]1n1ccc(=O)[nH]c1=O", "note": "[Compound 20, 2’-Deoxy-2’-C-butylsulfanylmethyl-3’,5’-O-(1,1,3,3-tetraisopropyldisiloxane-1,3-diyl)-β-D-arabinofuranosyl-uracil]", "values": [{"measurement": "growth inhibition against Pf3D7 (in words)", "setting": "[1]", "result": "good/excellent inhibitory effect"}]}, {"smiles": "CCN(CC)CCCC(C)Nc1ccnc2cc(Cl)ccc12", "note": "(stereo not shown) [chloroquine, reference compound]", "values": [{"measurement": "IC50", "setting": "[1]", "result": 0.025, "unit": "µM"}]}]}
